System: COVID-19
Assay type: in vivo, human

Substance: Dupilumab: anti-human IL4Rα monoclonal antibody that blocks IL-13 and IL-4 signaling; sold as DUPIXENT
- Deceased (number of patients) With Concurrent Dupilumab (31 patients): 0
- Ventilated (number of patients) With Concurrent Dupilumab (31 patients): 0
- Hospitalized (number of patients) With Concurrent Dupilumab (31 patients, values less than 20 suppressed): <20
- Odds Ratio, Hospitalized (Dupilumab vs matched controls 1:5, conditional logistic regression): 0.64
- rate of death (compared to matched controls): lower rate
- rate of hospitalization (compared to matched controls): lower rate
- rate of ventilation (compared to matched controls): lower rate
